According to PubChem BioAssay AID1963871 (Molecular Pharmacology Branch, DTP, NCI, 2024):

Tested on: KRAS-mutant PDC multicell tumor spheroid viability
Assay: Anticancer human tumor 521955-158-R2-J5-PDC patient-derived pancreatic carcinoma cell line growth inhibition [KRAS2]
Conditions: for IC50: curve of first compound; for viability, T/C: stronger effect = lower value; active = viability on the fitted dose curve at most 10% of control; inactive = the rest
In short: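 KRAS-mutant tumor cells were grown as spheroids with HUVEC endothelial cells and human MSCs as stroma. Targeted agents were tested alone and with KRAS pathway inhibitors. Doses started at or near clinical Cmax, or 10 microM, descending half-log.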

[1] = second compound 0.1 µM, first compound 0.0316 µM
[2] = second compound 0.1 µM, first compound 0.1 µM
[3] = second compound 0.1 µM, first compound 0.316 µM
[4] = second compound 0.1 µM, first compound 1 µM
[5] = second compound 0.1 µM, first compound 3.16 µM
[6] = second compound 0.1 µM, first compound 10 µM
[7] = second compound 0.316 µM, first compound 0.0316 µM
[8] = second compound 0.316 µM, first compound 0.1 µM
[9] = second compound 0.316 µM, first compound 0.316 µM
[10] = second compound 0.316 µM, first compound 1 µM
[11] = second compound 0.316 µM, first compound 3.16 µM
[12] = second compound 0.316 µM, first compound 10 µM
[13] = second compound 1 µM, first compound 0.0316 µM
[14] = second compound 1 µM, first compound 0.1 µM
[15] = second compound 1 µM, first compound 0.316 µM
[16] = second compound 1 µM, first compound 1 µM
[17] = second compound 1 µM, first compound 3.16 µM
[18] = second compound 1 µM, first compound 10 µM
[19] = second compound 3.16 µM, first compound 0.0316 µM
[20] = second compound 3.16 µM, first compound 0.1 µM
[21] = second compound 3.16 µM, first compound 0.316 µM
[22] = second compound 3.16 µM, first compound 1 µM
[23] = second compound 3.16 µM, first compound 3.16 µM
[24] = second compound 3.16 µM, first compound 10 µM
[25] = second compound 10 µM, first compound 0.0316 µM
[26] = second compound 10 µM, first compound 0.1 µM
[27] = second compound 10 µM, first compound 0.316 µM
[28] = second compound 10 µM, first compound 1 µM
[29] = second compound 10 µM, first compound 3.16 µM
[30] = second compound 10 µM, first compound 10 µM
[31] = second compound 0.1 µM, first compound 0.01 µM
[32] = second compound 0.316 µM, first compound 0.01 µM
[33] = second compound 1 µM, first compound 0.01 µM
[34] = second compound 3.16 µM, first compound 0.01 µM
[35] = second compound 10 µM, first compound 0.01 µM
[36] = second compound 0.1 µM, first compound 0.00316 µM
[37] = second compound 0.316 µM, first compound 0.00316 µM
[38] = second compound 1 µM, first compound 0.00316 µM
[39] = second compound 3.16 µM, first compound 0.00316 µM
[40] = second compound 10 µM, first compound 0.00316 µM
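Also: viability read after seven days of drug exposure.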

CC(C)NCC(C(=O)N1CCN(c2ncnc3c2C(C)CC3O)CC1)c1ccc(Cl)cc1 (stereo not given) + COc1cc2nc(C)nc(NC(C)c3cc(N)cc(C(F)(F)F)c3)c2cc1OC1CCOC1
active: viability, T/C [30] 4.84%
0.197 µM: IC50 (second compound 10 µM)
> 10 µM: IC50 (second compound 0.1 µM) | IC50 (second compound 0.316 µM) | IC50 (second compound 1 µM) | IC50 (second compound 3.16 µM)
inactive: viability, T/C [1] 89.3% | viability, T/C [2] 92.2% | viability, T/C [3] 70.4% | viability, T/C [4] 75.2% | viability, T/C [5] 70.9% | viability, T/C [6] 56.4% | viability, T/C [7] 95.9% | viability, T/C [8] 86% | viability, T/C [9] 71.7% | viability, T/C [10] 67.5% | viability, T/C [11] 71% | viability, T/C [12] 60.7% | viability, T/C [13] 81.3% | viability, T/C [14] 86.6% | viability, T/C [15] 60.2% | viability, T/C [16] 64.1% | viability, T/C [17] 63.7% | viability, T/C [18] 60.8% | viability, T/C [19] 87.3% | viability, T/C [20] 93.1% | viability, T/C [21] 72.2% | viability, T/C [22] 56.8% | viability, T/C [23] 59.4% | viability, T/C [24] 43.5% | viability, T/C [25] 48.7% | viability, T/C [26] 65.2% | viability, T/C [27] 43% | viability, T/C [28] 29.7% | viability, T/C [29] 14.3%

CC1COCCN1c1cc(-c2ccnn2C)c2ccnc(-c3ccn[nH]3)c2n1 (stereo not given) + COc1cc2nc(C)nc(NC(C)c3cc(N)cc(C(F)(F)F)c3)c2cc1OC1CCOC1
0.023 µM: IC50 (second compound 3.16 µM)
0.0217 µM: IC50 (second compound 0.316 µM)
0.0214 µM: IC50 (second compound 0.1 µM) | IC50 (second compound 1 µM)
inactive: viability, T/C [31] 85.3% | viability, T/C [1] 31.8% | viability, T/C [2] 9.64% | viability, T/C [3] 12.1% | viability, T/C [4] 16.3% | viability, T/C [5] 20.9% | viability, T/C [32] 85% | viability, T/C [7] 33% | viability, T/C [8] 8.19% | viability, T/C [9] 10.6% | viability, T/C [10] 15.9% | viability, T/C [11] 22.8% | viability, T/C [33] 93.4% | viability, T/C [13] 27.7% | viability, T/C [14] 10.1% | viability, T/C [15] 11.7% | viability, T/C [16] 15.6% | viability, T/C [17] 21.9% | viability, T/C [34] 97.4% | viability, T/C [19] 31.6% | viability, T/C [20] 7.75% | viability, T/C [21] 10.1% | viability, T/C [22] 16.6% | viability, T/C [23] 23.1% | viability, T/C [35] 39.6% | viability, T/C [25] 9.76% | viability, T/C [26] 4.43% | viability, T/C [27] 7.6% | viability, T/C [28] 16% | viability, T/C [29] 12.9%
< 0.01 µM: IC50 (second compound 10 µM)

CCN1CCN(Cc2ccc(Nc3ncc(F)c(-c4cc(F)c5nc(C)n(C(C)C)c5c4)n3)nc2)CC1 + COc1cc2nc(C)nc(NC(C)c3cc(N)cc(C(F)(F)F)c3)c2cc1OC1CCOC1
inactive: viability, T/C [36] 88.2% | viability, T/C [31] 84.9% | viability, T/C [1] 79.2% | viability, T/C [2] 79.9% | viability, T/C [3] 85.4% | viability, T/C [4] 76.7% | viability, T/C [37] 92% | viability, T/C [32] 89.9% | viability, T/C [7] 79.4% | viability, T/C [8] 71.7% | viability, T/C [9] 85.4% | viability, T/C [10] 76% | viability, T/C [38] 93.1% | viability, T/C [33] 80.2% | viability, T/C [13] 87.5% | viability, T/C [14] 77.4% | viability, T/C [15] 87.7% | viability, T/C [16] 80.8% | viability, T/C [39] 90.5% | viability, T/C [34] 101% | viability, T/C [19] 89.3% | viability, T/C [20] 76.7% | viability, T/C [21] 83.2% | viability, T/C [22] 73% | viability, T/C [40] 82.9% | viability, T/C [35] 76% | viability, T/C [25] 74.4% | viability, T/C [26] 91% | viability, T/C [27] 74.7%
> 1 µM: IC50 (second compound 0.1 µM) | IC50 (second compound 0.316 µM) | IC50 (second compound 1 µM) | IC50 (second compound 3.16 µM)
0.464 µM: IC50 (second compound 10 µM)
active: viability, T/C [28] 0.5%

CCNC(=O)CC1N=C(c2ccc(Cl)cc2)c2cc(OC)ccc2-n2c(C)nnc21 (stereo not given) + COc1cc2nc(C)nc(NC(C)c3cc(N)cc(C(F)(F)F)c3)c2cc1OC1CCOC1
0.418 µM: IC50 (second compound 10 µM)
0.293 µM: IC50 (second compound 0.316 µM)
0.32 µM: IC50 (second compound 3.16 µM)
0.405 µM: IC50 (second compound 0.1 µM)
0.333 µM: IC50 (second compound 1 µM)
inactive: viability, T/C [1] 90% | viability, T/C [2] 79.5% | viability, T/C [3] 52.6% | viability, T/C [4] 36.7% | viability, T/C [5] 32.4% | viability, T/C [6] 26.9% | viability, T/C [7] 104% | viability, T/C [8] 89.9% | viability, T/C [9] 47% | viability, T/C [10] 30.8% | viability, T/C [11] 30% | viability, T/C [12] 26.6% | viability, T/C [13] 89.2% | viability, T/C [14] 85.2% | viability, T/C [15] 50.1% | viability, T/C [16] 34.2% | viability, T/C [17] 28.2% | viability, T/C [18] 28% | viability, T/C [19] 98.5% | viability, T/C [20] 87.7% | viability, T/C [21] 48.4% | viability, T/C [22] 39.6% | viability, T/C [23] 28% | viability, T/C [24] 30.8% | viability, T/C [25] 105% | viability, T/C [26] 96.5% | viability, T/C [27] 49.9% | viability, T/C [28] 33.4% | viability, T/C [29] 18.6% | viability, T/C [30] 8.29%

Cn1nccc1Nc1nccc(-c2cc3c(s2)C(C)(C)N(CCN2CCOCC2)C3=O)n1 + COc1cc2nc(C)nc(NC(C)c3cc(N)cc(C(F)(F)F)c3)c2cc1OC1CCOC1
0.574 µM: IC50 (second compound 1 µM)
0.355 µM: IC50 (second compound 0.1 µM)
0.51 µM: IC50 (second compound 3.16 µM)
0.104 µM: IC50 (second compound 10 µM)
inactive: viability, T/C [1] 92.5% | viability, T/C [2] 77.9% | viability, T/C [3] 47.1% | viability, T/C [4] 36.8% | viability, T/C [5] 24.6% | viability, T/C [6] 17.6% | viability, T/C [7] 104% | viability, T/C [8] 83.7% | viability, T/C [9] 57.2% | viability, T/C [10] 40% | viability, T/C [11] 23.8% | viability, T/C [12] 16.6% | viability, T/C [13] 83.2% | viability, T/C [14] 87.6% | viability, T/C [15] 62% | viability, T/C [16] 37% | viability, T/C [17] 21.2% | viability, T/C [18] 13.9% | viability, T/C [19] 86% | viability, T/C [20] 75.3% | viability, T/C [21] 60.8% | viability, T/C [22] 36.1% | viability, T/C [23] 17.4% | viability, T/C [25] 76.8% | viability, T/C [26] 51% | viability, T/C [27] 16.8%
active: viability, T/C [24] 8.1% | viability, T/C [28] 4.05% | viability, T/C [29] 1.96% | viability, T/C [30] 0.81%
0.522 µM: IC50 (second compound 0.316 µM)

Cn1ncnc1[C@H]1c2n[nH]c(=O)c3cc(F)cc(c23)N[C@@H]1c1ccc(F)cc1 + COc1cc2nc(C)nc(NC(C)c3cc(N)cc(C(F)(F)F)c3)c2cc1OC1CCOC1
inactive: viability, T/C (second compound 0.1 µM, first compound 0.000316 µM) 80.6% | viability, T/C (second compound 0.1 µM, first compound 0.001 µM) 78.6% | viability, T/C [36] 85.2% | viability, T/C [31] 67.1% | viability, T/C [1] 70.3% | viability, T/C [2] 66.2% | viability, T/C (second compound 0.316 µM, first compound 0.000316 µM) 81.2% | viability, T/C (second compound 0.316 µM, first compound 0.001 µM) 90.5% | viability, T/C [37] 85.3% | viability, T/C [32] 63.2% | viability, T/C [7] 67.4% | viability, T/C [8] 65.2% | viability, T/C (second compound 1 µM, first compound 0.000316 µM) 86% | viability, T/C (second compound 1 µM, first compound 0.001 µM) 88.1% | viability, T/C [38] 84% | viability, T/C [33] 75.1% | viability, T/C [13] 69.3% | viability, T/C [14] 71.1% | viability, T/C (second compound 3.16 µM, first compound 0.000316 µM) 94.2% | viability, T/C (second compound 3.16 µM, first compound 0.001 µM) 94.6% | viability, T/C [39] 88.7% | viability, T/C [34] 81.2% | viability, T/C [19] 77.8% | viability, T/C [20] 70.3% | viability, T/C (second compound 10 µM, first compound 0.000316 µM) 84.7% | viability, T/C (second compound 10 µM, first compound 0.001 µM) 70.5% | viability, T/C [40] 75.3% | viability, T/C [35] 67.9% | viability, T/C [25] 57.6% | viability, T/C [26] 55%
> 0.1 µM: IC50 (second compound 0.1 µM) | IC50 (second compound 0.316 µM) | IC50 (second compound 1 µM) | IC50 (second compound 3.16 µM) | IC50 (second compound 10 µM)
